For 58 compounds, IC50 results are on record in patent US7247641B2, “Compounds, derivatives, compositions, preparation and uses” (MGI GP, Inc., priority 2001, dated 2007).

What is called IC50 is the point on the concentration scale where inhibition reaches its midpoint.

The assay deals with T1, purified recombinant human PARP (Homo sapiens, UniProt P09874).
T1 construct: purchased Trevigan (Gaithersburg, Md.)
T1 sequence (P09874 whole entry): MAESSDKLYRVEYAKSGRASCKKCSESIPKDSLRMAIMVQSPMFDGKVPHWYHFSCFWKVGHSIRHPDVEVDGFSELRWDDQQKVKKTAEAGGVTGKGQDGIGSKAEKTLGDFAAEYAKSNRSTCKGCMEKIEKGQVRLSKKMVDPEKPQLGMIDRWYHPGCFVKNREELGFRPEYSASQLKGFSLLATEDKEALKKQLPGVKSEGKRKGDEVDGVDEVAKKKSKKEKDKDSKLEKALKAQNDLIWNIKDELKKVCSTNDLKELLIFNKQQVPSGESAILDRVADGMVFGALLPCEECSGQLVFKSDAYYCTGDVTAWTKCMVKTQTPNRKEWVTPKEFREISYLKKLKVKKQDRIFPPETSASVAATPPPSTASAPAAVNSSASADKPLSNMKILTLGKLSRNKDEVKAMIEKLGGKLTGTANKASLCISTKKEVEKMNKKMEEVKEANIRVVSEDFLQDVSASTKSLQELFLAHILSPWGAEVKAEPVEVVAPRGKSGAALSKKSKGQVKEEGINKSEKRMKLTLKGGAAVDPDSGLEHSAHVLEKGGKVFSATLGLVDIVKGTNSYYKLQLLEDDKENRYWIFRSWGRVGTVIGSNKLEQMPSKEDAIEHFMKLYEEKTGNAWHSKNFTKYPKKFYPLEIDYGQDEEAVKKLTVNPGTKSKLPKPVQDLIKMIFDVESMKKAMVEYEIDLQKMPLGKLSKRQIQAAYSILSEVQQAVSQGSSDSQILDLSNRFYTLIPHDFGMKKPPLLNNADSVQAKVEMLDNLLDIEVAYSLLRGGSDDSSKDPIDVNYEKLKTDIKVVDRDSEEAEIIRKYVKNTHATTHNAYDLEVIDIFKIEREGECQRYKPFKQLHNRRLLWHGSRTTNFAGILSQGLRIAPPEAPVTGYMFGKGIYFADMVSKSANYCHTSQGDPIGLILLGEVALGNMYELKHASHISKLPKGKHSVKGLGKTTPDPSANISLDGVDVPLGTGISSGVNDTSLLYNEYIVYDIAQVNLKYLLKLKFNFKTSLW
Briefly: PARP enzyme assay, [3H]NAD incorporation, IC50. The assay is classed as biochemical. As to conditions: approximate values, PARP enzyme assay; read-out: IC50. The protocol:
The reaction is initiated by incubating the mixture at 25° C. After 15 minutes of incubation, the reaction is terminated by adding 500 microliters of ice cold 20% (w/v) trichloroacetic acid. The precipitate formed is transferred onto a glass fiber filter (Packard Unifilter-GF/B) and washed three times with ethanol. After the filter is dried, the radioactivity is determined by scintillation counting.
With `O=c1[nH]c2c(c3ccccc13)CN(Cc1ccccc1)CC2` [Compound 6a], the IC50 is 335 nM.

Turning to `O=c1[nH]c2c(c3ccc(F)cc13)CN(Cc1ccccc1)CC2` [Compound 6b], the IC50 stood at 182 nM. As to `O=c1[nH]c2c(c3ccccc13)CCN(Cc1ccccc1)C2` [Compound 11], the IC50 was 220 nM.

`O=C(CCCl)N1CCc2[nH]c(=O)c3ccccc3c2C1` [Compound 14a]: the IC50 was 185 nM. In the case of `CN(C)CCCN(C)CC(=O)N1CCc2[nH]c(=O)c3ccccc3c2C1` [Compound 16a] it was 426 nM; in that of `CN1CCN(CC(=O)N2CCc3[nH]c(=O)c4ccccc4c3C2)CC1` [Compound 16b], 1670 nM. As to `CC(O)CNCC(=O)N1CCc2[nH]c(=O)c3ccccc3c2C1` (stereo not shown) [Compound 16c], the IC50 is 421 nM. With `CN(C)CCN(C)CC(=O)N1CCc2[nH]c(=O)c3ccccc3c2C1` [Compound 16d], the IC50 is 985 nM. In the case of `O=C(CN1CCCCC1CO)N1CCc2[nH]c(=O)c3ccccc3c2C1` (stereo not shown) [Compound 16e] it was 844 nM. With `O=C(CN1CCN(CCO)CC1)N1CCc2[nH]c(=O)c3ccccc3c2C1` [Compound 16f], the IC50 turned out to be 13100 nM.

For `CN(C)CC(=O)N1CCc2[nH]c(=O)c3ccccc3c2C1` [Compound 16g], the IC50 came out at 644 nM. In the case of `O=C(CN1CCc2ccccc2C1)N1CCc2[nH]c(=O)c3ccccc3c2C1` [Compound 16h], the IC50 is 1580 nM. As to `O=C(CNC[C@H](O)CO)N1CCc2[nH]c(=O)c3ccccc3c2C1` [Compound 16i], the IC50 came out at 668 nM. For `CCOC(=O)C1CCN(CC(=O)N2CCc3[nH]c(=O)c4ccccc4c3C2)CC1` [Compound 16k], the IC50 amounted to 134 nM. As to `O=C1CCN(CC(=O)N2CCc3[nH]c(=O)c4ccccc4c3C2)CC1` [Compound 16l], the IC50 came to 296 nM. In the case of `O=C(CN1CC=CCC1)N1CCc2[nH]c(=O)c3ccccc3c2C1` [Compound 16m] it was 214 nM; in that of `CN(C)CCCN(C)CCC(=O)N1CCc2[nH]c(=O)c3ccccc3c2C1` [Compound 17a], 282 nM.

Consider `CN1CCN(CCC(=O)N2CCc3[nH]c(=O)c4ccccc4c3C2)CC1` [Compound 17b], for which the IC50 came out at 1800 nM. Consider `CC(O)CNCCC(=O)N1CCc2[nH]c(=O)c3ccccc3c2C1` (stereo not shown) [Compound 17c], for which the IC50 was 2180 nM.

`CN(CCC(=O)N1CCc2[nH]c(=O)c3ccccc3c2C1)CC(=O)OC(C)(C)C` [Compound 17d]: the IC50 is 180 nM. As to `CN(C)CCN(C)CCC(=O)N1CCc2[nH]c(=O)c3ccccc3c2C1` [Compound 17e], the IC50 was 385 nM. In the case of `O=C(CCN1CCCCC1CO)N1CCc2[nH]c(=O)c3ccccc3c2C1` (stereo not shown) [Compound 17f] it was 435 nM; in that of `O=C(CCN1CCc2ccccc2C1)N1CCc2[nH]c(=O)c3ccccc3c2C1` [Compound 17g], 244 nM. On to `O=C(CCNC[C@H](O)CO)N1CCc2[nH]c(=O)c3ccccc3c2C1` [Compound 17h], for which the IC50 is 250 nM. Regarding `O=C(CCN1CCCCC1)N1CCc2nc(O)c3ccccc3c2C1` [Compound 17i], the IC50 is 71 nM. In the case of `CCOC(=O)C1CCN(CCC(=O)N2CCc3[nH]c(=O)c4ccccc4c3C2)CC1` [Compound 17j] it was 558 nM. As to `O=C1CCN(CCC(=O)N2CCc3[nH]c(=O)c4ccccc4c3C2)CC1` [Compound 17k], the IC50 was 111 nM.

`O=C(CCNCCc1ccccc1F)N1CCc2[nH]c(=O)c3ccccc3c2C1` [Compound 17m]: the IC50 was 164 nM. In the case of `CN(C)CCCN(C)CCCC(=O)N1CCc2[nH]c(=O)c3ccccc3c2C1` [Compound 18a], the IC50 amounted to 185 nM. `CN1CCN(CCCC(=O)N2CCc3[nH]c(=O)c4ccccc4c3C2)CC1` [Compound 18b]: the IC50 is 241 nM. For `CC(O)CNCCCC(=O)N1CCc2[nH]c(=O)c3ccccc3c2C1` (stereo not shown) [Compound 18c], the IC50 worked out at 87 nM. Consider `CN(CCCC(=O)N1CCc2[nH]c(=O)c3ccccc3c2C1)CC(=O)OC(C)(C)C` [Compound 18d], for which the IC50 worked out at 495 nM. Take `CN(C)CCN(C)CCCC(=O)N1CCc2[nH]c(=O)c3ccccc3c2C1` [Compound 18e]: the IC50 is 492 nM. As to `O=C(CCCN1CCCCC1CO)N1CCc2[nH]c(=O)c3ccccc3c2C1` (stereo not shown) [Compound 18f], the IC50 worked out at 672 nM. In the case of `O=C(CCCN1CCN(CCO)CC1)N1CCc2[nH]c(=O)c3ccccc3c2C1` [Compound 18g] it was 479 nM.

Regarding `CN(C)CCCC(=O)N1CCc2[nH]c(=O)c3ccccc3c2C1` [Compound 18h], the IC50 came out at 152 nM. In the case of `O=C(CCCN1CCCCC1)N1CCc2[nH]c(=O)c3ccccc3c2C1` [Compound 18j], the IC50 came out at 457 nM.

For the compound `CCOC(=O)C1CCN(CCCC(=O)N2CCc3[nH]c(=O)c4ccccc4c3C2)CC1` [Compound 18k], the IC50 turned out to be 482 nM.

For `O=C1CCN(CCCC(=O)N2CCc3[nH]c(=O)c4ccccc4c3C2)CC1` [Compound 18l], the IC50 turned out to be 251 nM. In the case of `O=C(CCCN1CC=CCC1)N1CCc2[nH]c(=O)c3ccccc3c2C1` [Compound 18m] it was 410 nM. In the case of `O=C(CCCNCCc1ccccc1F)N1CCc2[nH]c(=O)c3ccccc3c2C1` [Compound 18n] it was 1320 nM. In the case of `O=C(CCCNC[C@@H]1CCCO1)N1CCc2[nH]c(=O)c3ccccc3c2C1` [Compound 18o] it was 322 nM; in that of `O=C(CCCNC[C@H]1CCCO1)N1CCc2[nH]c(=O)c3ccccc3c2C1` [Compound 18p], 167 nM; in that of `C[C@H](CO)NCCCC(=O)N1CCc2[nH]c(=O)c3ccccc3c2C1` [Compound 18q], 251 nM. On to `O=C(CCCNCC(O)c1ccccc1)N1CCc2[nH]c(=O)c3ccccc3c2C1` (stereo not shown) [Compound 18r], for which the IC50 came to 357 nM. In the case of `O=C(CCCNCC1(O)CCCCC1)N1CCc2[nH]c(=O)c3ccccc3c2C1` [Compound 18s] it was 156 nM; in that of `NCC(=O)N1CCc2[nH]c(=O)c3ccccc3c2C1` [Compound 21a], 90 nM; in that of `CC(C)C(N)C(=O)N1CCc2[nH]c(=O)c3ccccc3c2C1` (stereo not shown) [Compound 21c], 698 nM. In the case of `O=C(C1CCCN1)N1CCc2[nH]c(=O)c3ccccc3c2C1` (stereo not shown) [Compound 21d] it was 268 nM; in that of `NC(Cc1ccccc1)C(=O)N1CCc2[nH]c(=O)c3ccccc3c2C1` (stereo not shown) [Compound 21i], 1230 nM. Consider `NC(Cc1ccc(O)cc1)C(=O)N1CCc2[nH]c(=O)c3ccccc3c2C1` (stereo not shown) [Compound 21j], for which the IC50 was 382 nM.

In the case of `N[C@H](Cc1ccc(O)cc1)C(=O)N1CCc2[nH]c(=O)c3ccccc3c2C1` [Compound 21k], the IC50 turned out to be 3710 nM. In the case of `NCCC(=O)N1CCc2[nH]c(=O)c3ccccc3c2C1` [Compound 21l] it was 62 nM. Turning to `CC(=O)N1CCc2[nH]c(=O)c3ccccc3c2C1` [Compound 21n], the concentration for half-maximal inhibition (IC50) is 58 nM. Take `O=C(NCCN1CCCCC1)N1CCc2[nH]c(=O)c3ccccc3c2C1` [Compound 21o]: the IC50 turned out to be 105 nM. With `O=C(c1cccc(CCl)c1)N1CCc2c([nH]c(=O)c3ccccc23)C1` [Compound 21p], the IC50 turned out to be 799 nM.

In the case of `O=C(O)c1cccc(S(=O)(=O)N2CCc3[nH]c(=O)c4ccccc4c3C2)c1` [Compound 22a], the IC50 was found to be 36 nM.

Regarding `C=CS(=O)(=O)N1CCc2[nH]c(=O)c3ccccc3c2C1` [Compound 22c], the IC50 is 292 nM.
